US9802937B2, “Substituted pyrazolo{4,3-D}pyrimidines as kinase inhibitors” (ORIGENIS GMBH, priority 2011, dated 2017)

Molecular target: T1, SYK kinase (Homo sapiens, UniProt P43405)
T1 construct: purchased Invitrogen, Carlsbad
Experiment: SYK Assay (OMNIA KINASE ASSAY, SOX peptide fluorescence)
Assay type: biochemical
Conditions: apparent Ki calculated from the IC50 using the Cheng-Prusoff equation; 1 mM ATP, 30° C.; read-out: SYK Activities: Ki
Protocol: In the assay OMNIA® KINASE ASSAY by Invitrogen Corporation (Carlsbad) the effect of invention of a compound on the phosphorylation is determined by measurement of fluorescence intensity of a chelation-enhanced fluorophore called SOX. Upon phosphorylation of the peptide by the kinase of interest, Mg2+ is chelated to form a bridge between the SOX moiety and the phosphate group that is transferred to the specific tyrosine on the peptide. The fluorescence intensity is directly proportional to the amount of peptide phosphorylation.
To the wells of an 384 well small volume plate (Greiner, Frickenhausen) are added (i) the compound under test in 5% DMSO/distilled water (2 μl), (ii) 16 μl of the master mix containing ATP, DTT, Kinase Reaction Buffer, Omina Peptide Substrate Tyr 7 resulting in a final concentration of 1 mM ATP, 0.2 mM DTT and 10 μM Peptide Substrate.
The Master Mix and the assay plate was incubated to reaction temperature before the measurement (30° C.). The reaction was started with addition of (iii) 2 μl 4 μg/ml SYK kinase (Invitrogen, Carlsbad). During measurement fluorescence intensitiy readings were collected using a TECAN M1000 at a wavelength of λex 360/λem 485 nm every 30 s for 30 minutes. The reaction velocity was plotted versus the inhibitor concentration to determine the […] using XLFit 5.0 (IDBS, Guildford) to fit to a sigmoidal dose response curve, and the apparent Ki values were calculated from the IC50 using the Cheng-Prusoff equation (Cheng, Y.; Prusoff, W. H. Biochem. Pharmacol. 22, 3099-3108, 1973).

| SMILES | Ki [µM] |
| --- | --- |
| c1ccc(-c2nc(Nc3ccc(N4CCCCC4)cc3)c3[nH]ncc3n2)cc1 [Example #3, 5-phenyl-N-(4-(piperidin-1-yl)phenyl)-1H-pyrazolo[4,3-d]pyrimidin-7-amine] | 0.01 to 0.1 |
| NC(=O)c1ccc(Nc2nc(-c3ccccc3)nc3cn[nH]c23)cc1 [Example #11, 4-((5-phenyl-1H-pyrazolo[4,3-d]pyrimidin-7-yl)amino)benzamide] | < 0.01 |
| N#Cc1ccc(Nc2nc(-c3ccccc3)nc3cn[nH]c23)cc1 [Example #12, 4-((5-phenyl-1H-pyrazolo[4,3-d]pyrimidin-7-yl)amino)benzonitrile] | 0.01 to 0.1 |
| c1cc(-c2nc(Nc3ccc4[nH]ncc4c3)c3[nH]ncc3n2)ccn1 [Example #13, N-(1H-indazol-5-yl)-5-(pyridin-4-yl)-1H-pyrazolo[4,3-d]pyrimidin-7-amine] | 0.1 to 1 |
| c1cc(-c2nc(Nc3ccc(N4CCOCC4)cc3)c3[nH]ncc3n2)ccn1 [Example #19, N-(4-morpholinophenyl)-5-(pyridin-4-yl)-1H-pyrazolo[4,3-d]pyrimidin-7-amine] | 0.01 to 0.1 |
| CN1CCC(c2nc(Nc3ccc(Cl)cc3)c3[nH]ncc3n2)CC1 [Example #29, N-(4-chlorophenyl)-5-(1-methylpiperidin-4-yl)-1H-pyrazolo[4,3-d]pyrimidin-7-amine] | 0.01 to 0.1 |
| c1cc2cn[nH]c2cc1Nc1nc(-c2ccc(N3CCCC3)nc2)nc2cn[nH]c12 [Example #30, N-(1H-indazol-6-yl)-5-(6-(pyrrolidin-1-yl)pyridin-3-yl)-1H-pyrazolo[4,3-d]pyrimidin-7-amine] | < 0.01 |
| CN(C)c1ccc(Nc2nc(-c3ccc(N4CCCC4)nc3)nc3cn[nH]c23)cc1 [Example #31, N1,N1-dimethyl-N4-(5-(6-(pyrrolidin-1-yl)pyridin-3-yl)-1H-pyrazolo[4,3-d]pyrimidin-7-yl)benzene-1,4-diamine] | < 0.01 |
| c1ccc(-c2nc(Nc3cc[nH]n3)c3[nH]ncc3n2)cc1 [Example #38, 5-phenyl-N-(1H-pyrazol-3-yl)-1H-pyrazolo[4,3-d]pyrimidin-7-amine] | 0.01 to 0.1 |
| c1ccc(-c2nc(Nc3ccc(N4CCCC4)cc3)c3[nH]ncc3n2)cc1 [Example #39, 5-phenyl-N-(4-(pyrrolidin-1-yl)phenyl)-1H-pyrazolo[4,3-d]pyrimidin-7-amine] | 0.1 to 1 |
| CN1CCC(c2nc(Nc3ccc(N4CCOCC4)cc3)c3[nH]ncc3n2)CC1 [Example #52, 5-(1-methylpiperidin-4-yl)-N-(4-morpholinophenyl)-1H-pyrazolo[4,3-d]pyrimidin-7-amine] | 0.01 to 0.1 |
| CN1CCC(c2nc(Nc3ccc(N4CCN(C)CC4)cc3)c3[nH]ncc3n2)CC1 [Example #53, N-(4-(4-methylpiperazin-1-yl)phenyl)-5-(1-methylpiperidin-4-yl)-1H-pyrazolo[4,3-d]pyrimidin-7-amine] | 0.01 to 0.1 |
| CN1CCC(c2nc(Nc3ccc4c(c3)NC(=O)CO4)c3[nH]ncc3n2)CC1 [Example #54, 6-((5-(1-methylpiperidin-4-yl)-1H-pyrazolo[4,3-d]pyrimidin-7-yl)amino)-2H-benzo[b][1,4]oxazin-3(4H)-one] | < 0.01 |
| CN1CCC(c2nc(Nc3cc[nH]n3)c3[nH]ncc3n2)CC1 [Example #55, 5-(1-methylpiperidin-4-yl)-N-(1H-pyrazol-3-yl)-1H-pyrazolo[4,3-d]pyrimidin-7-amine] | 0.1 to 1 |
| CN1CCC(c2nc(Nc3ccc(N4CCCC4)cc3)c3[nH]ncc3n2)CC1 [Example #56, 5-(1-methylpiperidin-4-yl)-N-(4-(pyrrolidin-1-yl)phenyl)-1H-pyrazolo[4,3-d]pyrimidin-7-amine] | 0.1 to 1 |
| c1csc(-c2nc(Nc3cc(C4CC4)[nH]n3)c3[nH]ncc3n2)c1 [Example #90, N-(5-cyclopropyl-1H-pyrazol-3-yl)-5-(thiophen-2-yl)-1H-pyrazolo[4,3-d]pyrimidin-7-amine] | 0.01 to 0.1 |
| CN1CCC(c2nc(Nc3cc(C4CC4)[nH]n3)c3[nH]ncc3n2)CC1 [Example #92, N-(5-cyclopropyl-1H-pyrazol-3-yl)-5-(1-methylpiperidin-4-yl)-1H-pyrazolo[4,3-d]pyrimidin-7-amine] | 0.01 to 0.1 |
| CN1CCC(c2nc(Nc3cccc(O)c3)c3[nH]ncc3n2)CC1 [Example #94, 3-((5-(1-methylpiperidin-4-yl)-1H-pyrazolo[4,3-d]pyrimidin-7-yl)amino)phenol] | 0.01 to 0.1 |

| SMILES | Ki [µM] |
| --- | --- |
| c1ccc2sc(-c3nc(Nc4ccc5cn[nH]c5c4)c4[nH]ncc4n3)nc2c1 [Example #98, 5-(benzo[d]thiazol-2-yl)-N-(1H-indazol-6-yl)-1H-pyrazolo[4,3-d]pyrimidin-7-amine] | < 0.01 |
| c1cncc(-c2cccc(-c3nc(Nc4cc(C5CC5)[nH]n4)c4[nH]ncc4n3)c2)c1 [Example #100, N-(5-cyclopropyl-1H-pyrazol-3-yl)-5-(3-(pyridin-3-yl)phenyl)-1H-pyrazolo[4,3-d]pyrimidin-7-amine] | 0.01 to 0.1 |
| c1cncc(-c2cccc(-c3nc(Nc4ccc(N5CCOCC5)cc4)c4[nH]ncc4n3)c2)c1 [Example #102, N-(4-morpholinophenyl)-5-(3-(pyridin-3-yl)phenyl)-1H-pyrazolo[4,3-d]pyrimidin-7-amine] | 0.01 to 0.1 |
| c1cncc(-c2cccc(-c3nc(Nc4ccc5c(c4)NCCO5)c4[nH]ncc4n3)c2)c1 [Example #103, N-(5-(3-(pyridin-3-yl)phenyl)-1H-pyrazolo[4,3-d]pyrimidin-7-yl)-3,4-dihydro-2H-benzo[b][1,4]oxazin-6-amine] | 0.01 to 0.1 |
| c1cncc(-c2cccc(-c3nc(Nc4ccc5cn[nH]c5c4)c4[nH]ncc4n3)c2)c1 [Example #104, N-(1H-indazol-6-yl)-5-(3-(pyridin-3-yl)phenyl)-1H-pyrazolo[4,3-d]pyrimidin-7-amine] | 0.01 to 0.1 |
| CN1CCN(c2ccc(Nc3nc(-c4ccccc4O)nc4cn[nH]c34)cc2)CC1 [Example #105, 2-(7-((4-(4-methylpiperazin-1-yl)phenyl)amino)-1H-pyrazolo[4,3-d]pyrimidin-5-yl)phenol] | 0.01 to 0.1 |
| CN1CCN(c2ccc(Nc3nc(-c4cccc(N5CCOCC5)c4)nc4cn[nH]c34)cc2)CC1 [Example #106, N-(4-(4-methylpiperazin-1-yl)phenyl)-5-(3-morpholinophenyl)-1H-pyrazolo[4,3-d]pyrimidin-7-amine] | 0.01 to 0.1 |
| COc1ccc(Nc2nc(-c3cccc(N4CCOCC4)c3)nc3cn[nH]c23)cc1OC [Example #107, N-(3,4-dimethoxyphenyl)-5-(3-morpholinophenyl)-1H-pyrazolo[4,3-d]pyrimidin-7-amine] | 0.01 to 0.1 |
| COc1ccccc1-c1nc(Nc2ccc(N3CCOCC3)cc2)c2[nH]ncc2n1 [Example #112, 5-(2-methoxyphenyl)-N-(4-morpholinophenyl)-1H-pyrazolo[4,3-d]pyrimidin-7-amine] | 0.01 to 0.1 |
| COc1ccccc1-c1nc(Nc2cc(C3CC3)[nH]n2)c2[nH]ncc2n1 [Example #113, N-(5-cyclopropyl-1H-pyrazol-3-yl)-5-(2-methoxyphenyl)-1H-pyrazolo[4,3-d]pyrimidin-7-amine] | 0.1 to 1 |
| N[C@@H]1CCCC[C@H]1Nc1nc(-c2ccsc2)nc2cn[nH]c12 [Example #115, (1R,2R)—N-(5-Thiophen-3-yl-1H-pyrazolo[4,3-d]pyrimidin-7-yl)-cyclohexane-1,2-diamine] | 0.1 to 1 |
| N[C@@H]1CCCC[C@@H]1Nc1nc(-c2ccsc2)nc2cn[nH]c12 [Example #116, (1S,2R)—N-(5-Thiophen-3-yl-1H-pyrazolo[4,3-d]pyrimidin-7-yl)-cyclohexane-1,2-diamine] | 0.01 to 0.1 |
| COc1ccc(OC)c(-c2nc(Nc3ccc(OC)c(OC)c3)c3[nH]ncc3n2)c1 [Example #121, 5-(2,5-dimethoxyphenyl)-N-(3,4-dimethoxyphenyl)-1H-pyrazolo[4,3-d]pyrimidin-7-amine] | 0.1 to 1 |
| CCN1CCN(c2ccc(Nc3nc(-c4cc(OC)ccc4OC)nc4cn[nH]c34)cc2)CC1 [Example #122, 5-(2,5-dimethoxyphenyl)-N-(4-(4-ethylpiperazin-1-yl)phenyl)-1H-pyrazolo[4,3-d]pyrimidin-7-amine] | 0.01 to 0.1 |
| COc1ccc(OC)c(-c2nc(Nc3ccc(N4CCN(C5CC5)CC4)cc3)c3[nH]ncc3n2)c1 [Example #123, N-(4-(4-cyclopropylpiperazin-1-yl)phenyl)-5-(2,5-dimethoxyphenyl)-1H-pyrazolo[4,3-d]pyrimidin-7-amine] | 0.01 to 0.1 |
| COc1ccc(Nc2nc(-c3cn4ccccc4n3)nc3cn[nH]c23)cc1OC [Example #124, N-(3,4-dimethoxyphenyl)-5-(imidazo[1,2-a]pyridin-2-yl)-1H-pyrazolo[4,3-d]pyrimidin-7-amine] | 0.01 to 0.1 |
| CCN1CCN(c2ccc(Nc3nc(-c4cn5ccccc5n4)nc4cn[nH]c34)cc2)CC1 [Example #125, N-(4-(4-ethylpiperazin-1-yl)phenyl)-5-(imidazo[1,2-a]pyridin-2-yl)-1H-pyrazolo[4,3-d]pyrimidin-7-amine] | 0.01 to 0.1 |
| O=C(O)c1ccc(Nc2nc(-c3cn4ccccc4n3)nc3cn[nH]c23)cc1 [Example #128, 4-((5-(imidazo[1,2-a]pyridin-2-yl)-1H-pyrazolo[4,3-d]pyrimidin-7-yl)amino)benzoic-acid] | < 0.01 |
